Publication PMC2453323 (PLoS Pathogens, 2008)

Assays:
Type in all cases: biochemical
[1] = biological target: neuraminidase of A(H1N1) clinical isolate 0006/07 (Influenza A virus (H1N1), UniProt D5F1R0, K249G)
[2] = biological target: neuraminidase (H275Y) of A(H1N1) clinical isolate 0341/07 (Influenza A virus (H1N1), UniProt D5F1R0, D354G/H275Y)
[3] = biological target: neuraminidase (H275Y) of A(H1N1) clinical isolate 0577/07 (Influenza A virus (H1N1), UniProt D5F1R0, D354G/H275Y)
[4] = biological target: neuraminidase (H275Y) of A(H1N1) clinical isolate 0644/07 (Influenza A virus (H1N1), UniProt D5F1R0, D354G/H275Y)
[5] = biological target: neuraminidase (H275Y) of A(H1N1) clinical isolate 0749/07 (Influenza A virus (H1N1), UniProt D5F1R0, D354G/H275Y)
[6] = biological target: neuraminidase (H275Y) of A(H1N1) clinical isolate 0847/07 (Influenza A virus (H1N1), UniProt D5F1R0, D354G/H275Y)
[7] = biological target: neuraminidase (H275Y) of A(H1N1) clinical isolate 0910/08 (Influenza A virus (H1N1), UniProt G3LYR2)
[8] = biological target: neuraminidase (H275Y) of A(H1N1) clinical isolate 0963/08 (Influenza A virus (H1N1), UniProt G3LYR2, G354D)
[9] = biological target: neuraminidase (H275Y) of A(H1N1) clinical isolate 1154/08 (Influenza A virus (H1N1), UniProt G3LYR2)
[10] = biological target: neuraminidase (H275Y) of A(H1N1) clinical isolate 1157/08 (Influenza A virus (H1N1), UniProt G3LYR2, G214E)
[11] = biological target: neuraminidase (H275Y) of A(H1N1) clinical isolate 1170/08 (Influenza A virus (H1N1), UniProt G3LYR2)
[12] = biological target: neuraminidase (H275Y) of A(H1N1) clinical isolate 1208/08 (Influenza A virus (H1N1), UniProt G3LYR2)
[13] = biological target: neuraminidase (H275Y) of the 11 resistant H1N1 viruses from the 2007–2008 season (Influenza A virus (H1N1), UniProt G3LYQ1, H275Y); conditions: read-out: Mean Km, group Mean

Question: With CC(=O)N[C@@H]1[C@@H](O)C[C@](Oc2ccc3c(C)cc(=O)oc3c2)(C(=O)O)O[C@H]1C(O)[C@H](O)CO (stereo partly shown) [MUNANA] as the compound, how does the Km [1] read?
Answer: 12.4 µM

Question: What about the Km [2] of the same compound?
Answer: 18 µM

Question: And the Km [3]?
Answer: 19.5 µM

Question: And the Km [4]?
Answer: 18.4 µM

Question: What about the Km [5] of the same compound?
Answer: 18 µM

Question: What about the Km [6] of the same compound?
Answer: 24 µM

Question: What about the Km [7] of the same compound?
Answer: 25 µM

Question: And the Km [8]?
Answer: 18.4 µM

Question: What about the Km [9] of the same compound?
Answer: 14.5 µM

Question: What about the Km [10] of the same compound?
Answer: 20 µM

Question: And the Km [11]?
Answer: 18.2 µM

Question: And the Km [12]?
Answer: 19 µM

Question: What about the Km [13] of the same compound?
Answer: 19.4 µM
